In brackets after ≈: the same amount, converted by molar mass.
Experiments:
Staphylococcus aureus [1] = test: Antibacterial activity against methicillin-resistant Staphylococcus aureus clinical isolate MRSA-23 measured after 16 to 18 hrs by CLSI method; type: functional; conditions: time 16-18 hrs
Staphylococcus aureus [2] = test: Antibacterial activity against methicillin-resistant Staphylococcus aureus clinical isolate MRSA-11 measured after 16 to 18 hrs by CLSI method; type: functional; conditions: time 16-18 hrs
Staphylococcus aureus [3] = test: Antibacterial activity against Staphylococcus aureus ATCC 29213 measured after 16 to 18 hrs by CLSI method; type: functional; conditions: time 16-18 hrs
[4] = Hemolytic activity in sheep erythrocytes incubated for 1 hr by absorbance based analysis; type: toxicity, cell-based, Ovis aries, Erythrocyte
Staphylococcus aureus [5] = test: Antibacterial activity against methicillin-resistant Staphylococcus aureus clinical isolate MRSA-22 measured after 16 to 18 hrs by CLSI method; type: functional; conditions: time 16-18 hrs
Staphylococcus aureus [6] = test: Antibacterial activity against methicillin-resistant Staphylococcus aureus clinical isolate MRSA-14 measured after 16 to 18 hrs by CLSI method; type: functional; conditions: time 16-18 hrs
Staphylococcus aureus [7] = test: Antibacterial activity against methicillin-resistant Staphylococcus aureus clinical isolate MRSA-18 measured after 16 to 18 hrs by CLSI method; type: functional; conditions: time 16-18 hrs
Staphylococcus aureus [8] = test: Antibacterial activity against methicillin-resistant Staphylococcus aureus clinical isolate MRSA-21 measured after 16 to 18 hrs by CLSI method; type: functional; conditions: time 16-18 hrs
Staphylococcus aureus [9] = test: Antibacterial activity against methicillin-resistant Staphylococcus aureus clinical isolate MRSA-13 measured after 16 to 18 hrs by CLSI method; type: functional; conditions: time 16-18 hrs
Staphylococcus aureus [10] = test: Antibacterial activity against methicillin-resistant Staphylococcus aureus clinical isolate MRSA-16 measured after 16 to 18 hrs by CLSI method; type: functional; conditions: time 16-18 hrs
[11] = Selectivity index, ratio of HC50 for hemolytic activity in sheep erythrocytes to MIC for antibacterial activity against Staphylococcus aureus ATCC 29213; type: toxicity, cell-based; conditions: read-out: Selectivity Index
Staphylococcus aureus [12] = test: Antibacterial activity against methicillin-resistant Staphylococcus aureus clinical isolate MRSA-20 measured after 16 to 18 hrs by CLSI method; type: functional; conditions: time 16-18 hrs
Escherichia coli = test: Antibacterial activity against Escherichia coli ATCC25922 measured after 16 to 18 hrs by CLSI method; type: functional; conditions: time 16-18 hrs
Staphylococcus aureus [13] = test: Antibacterial activity against methicillin-resistant Staphylococcus aureus clinical isolate MRSA-17 measured after 16 to 18 hrs by CLSI method; type: functional; conditions: time 16-18 hrs

## COc1cc(OCCCCCN2CCOCC2)c(CC=C(C)C)c2c1C(=O)CC(c1ccc(OCCCCCN3CCOCC3)cc1)O2 (configuration not stated)
Staphylococcus aureus [1]
  MIC: 16 µg/mL (≈ 24.1 µM)
Staphylococcus aureus [2]
  MIC: 16 µg/mL (≈ 24.1 µM)
Staphylococcus aureus [3]
  MIC: 16 µg/mL (≈ 24.1 µM)
[4]
  HC50 at 1 h: > 1280 µg/mL
Staphylococcus aureus [5]
  MIC: 8 µg/mL (≈ 12 µM)
Staphylococcus aureus [6]
  MIC: 16 µg/mL (≈ 24.1 µM)
Staphylococcus aureus [7]
  MIC: 16 µg/mL (≈ 24.1 µM)
Staphylococcus aureus [8]
  MIC: 16 µg/mL (≈ 24.1 µM)
Staphylococcus aureus [9]
  MIC: 16 µg/mL (≈ 24.1 µM)
Staphylococcus aureus [10]
  MIC: 16 µg/mL (≈ 24.1 µM)
[11]
  selectivity ratio: > 80
Staphylococcus aureus [12]
  MIC: 16 µg/mL (≈ 24.1 µM)
Escherichia coli
  MIC: > 128 µg/mL
Staphylococcus aureus [13]
  MIC: 16 µg/mL (≈ 24.1 µM)

## COc1cc(OCCCCCN2CCC(C)CC2)c(CC=C(C)C)c2c1C(=O)CC(c1ccc(OCCCCCN3CCC(C)CC3)cc1)O2 (configuration not stated)
Staphylococcus aureus [1]
  MIC: 8 µg/mL (≈ 11.6 µM)
Staphylococcus aureus [2]
  MIC: 4 µg/mL (≈ 5.81 µM)
Staphylococcus aureus [3]
  MIC: 8 µg/mL (≈ 11.6 µM)
[4]
  HC50 at 1 h: > 1280 µg/mL
Staphylococcus aureus [5]
  MIC: 8 µg/mL (≈ 11.6 µM)
Staphylococcus aureus [6]
  MIC: 8 µg/mL (≈ 11.6 µM)
Staphylococcus aureus [7]
  MIC: 8 µg/mL (≈ 11.6 µM)
Staphylococcus aureus [8]
  MIC: 4 µg/mL (≈ 5.81 µM)
Staphylococcus aureus [9]
  MIC: 8 µg/mL (≈ 11.6 µM)
Staphylococcus aureus [10]
  MIC: 4 µg/mL (≈ 5.81 µM)
[11]
  selectivity ratio: > 160
Staphylococcus aureus [12]
  MIC: 8 µg/mL (≈ 11.6 µM)
Escherichia coli
  MIC: > 128 µg/mL
Staphylococcus aureus [13]
  MIC: 8 µg/mL (≈ 11.6 µM)

## CCCN(CCC)CCCCCOc1ccc(C2CC(=O)c3c(OC)cc(OCCCCCN(CCC)CCC)c(CC=C(C)C)c3O2)cc1 (configuration not stated)
Staphylococcus aureus [1]
  MIC: 16 µg/mL (≈ 23.1 µM)
Staphylococcus aureus [2]
  MIC: 8 µg/mL (≈ 11.5 µM)
Staphylococcus aureus [3]
  MIC: 8 µg/mL (≈ 11.5 µM)
[4]
  HC50 at 1 h: 331 µg/mL
Staphylococcus aureus [5]
  MIC: 8 µg/mL (≈ 11.5 µM)
Staphylococcus aureus [6]
  MIC: 8 µg/mL (≈ 11.5 µM)
Staphylococcus aureus [7]
  MIC: 16 µg/mL (≈ 23.1 µM)
Staphylococcus aureus [8]
  MIC: 8 µg/mL (≈ 11.5 µM)
Staphylococcus aureus [9]
  MIC: 8 µg/mL (≈ 11.5 µM)
Staphylococcus aureus [10]
  MIC: 8 µg/mL (≈ 11.5 µM)
[11]
  selectivity ratio: 41.4
Staphylococcus aureus [12]
  MIC: 8 µg/mL (≈ 11.5 µM)
Escherichia coli
  MIC: > 128 µg/mL
Staphylococcus aureus [13]
  MIC: 8 µg/mL (≈ 11.5 µM)

## COc1cc(OCCCCN2CCSCC2)c(CC=C(C)C)c2c1C(=O)CC(c1ccc(OCCCCN3CCSCC3)cc1)O2 (configuration not stated)
Staphylococcus aureus [1]
  MIC: > 128 µg/mL
Staphylococcus aureus [2]
  MIC: > 128 µg/mL
Staphylococcus aureus [3]
  MIC: 64 µg/mL (≈ 95.7 µM)
[4]
  HC50 at 1 h: > 640 µg/mL
Staphylococcus aureus [5]
  MIC: > 128 µg/mL
Staphylococcus aureus [6]
  MIC: > 128 µg/mL
Staphylococcus aureus [7]
  MIC: > 128 µg/mL
Staphylococcus aureus [8]
  MIC: > 128 µg/mL
Staphylococcus aureus [9]
  MIC: > 128 µg/mL
Staphylococcus aureus [10]
  MIC: > 128 µg/mL
[11]
  selectivity ratio: > 10
Staphylococcus aureus [12]
  MIC: > 128 µg/mL
Escherichia coli
  MIC: > 128 µg/mL
Staphylococcus aureus [13]
  MIC: > 128 µg/mL

## COc1cc(OCCCN2CCC(C)CC2)c(CC=C(C)C)c2c1C(=O)CC(c1ccc(OCCCN3CCC(C)CC3)cc1)O2 (configuration not stated)
Staphylococcus aureus [1]
  MIC: 32 µg/mL (≈ 50.6 µM)
Staphylococcus aureus [2]
  MIC: 16 µg/mL (≈ 25.3 µM)
Staphylococcus aureus [3]
  MIC: 16 µg/mL (≈ 25.3 µM)
[4]
  HC50 at 1 h: > 1280 µg/mL
Staphylococcus aureus [5]
  MIC: 16 µg/mL (≈ 25.3 µM)
Staphylococcus aureus [6]
  MIC: 16 µg/mL (≈ 25.3 µM)
Staphylococcus aureus [7]
  MIC: 16 µg/mL (≈ 25.3 µM)
Staphylococcus aureus [8]
  MIC: 16 µg/mL (≈ 25.3 µM)
Staphylococcus aureus [9]
  MIC: 16 µg/mL (≈ 25.3 µM)
Staphylococcus aureus [10]
  MIC: 16 µg/mL (≈ 25.3 µM)
[11]
  selectivity ratio: > 80
Staphylococcus aureus [12]
  MIC: 16 µg/mL (≈ 25.3 µM)
Escherichia coli
  MIC: > 128 µg/mL
Staphylococcus aureus [13]
  MIC: 16 µg/mL (≈ 25.3 µM)

## COc1cc(OCCCCN2CCCCC2C)c(CC=C(C)C)c2c1C(=O)CC(c1ccc(OCCCCN3CCCCC3C)cc1)O2 (configuration not stated)
Staphylococcus aureus [1]
  MIC: 32 µg/mL (≈ 48.4 µM)
Staphylococcus aureus [2]
  MIC: 8 µg/mL (≈ 12.1 µM)
Staphylococcus aureus [3]
  MIC: 32 µg/mL (≈ 48.4 µM)
[4]
  HC50 at 1 h: 275 µg/mL
Staphylococcus aureus [5]
  MIC: 16 µg/mL (≈ 24.2 µM)
Staphylococcus aureus [6]
  MIC: 16 µg/mL (≈ 24.2 µM)
Staphylococcus aureus [7]
  MIC: 32 µg/mL (≈ 48.4 µM)
Staphylococcus aureus [8]
  MIC: 32 µg/mL (≈ 48.4 µM)
Staphylococcus aureus [9]
  MIC: 32 µg/mL (≈ 48.4 µM)
Staphylococcus aureus [10]
  MIC: 32 µg/mL (≈ 48.4 µM)
[11]
  selectivity ratio: > 8.6
Staphylococcus aureus [12]
  MIC: 32 µg/mL (≈ 48.4 µM)
Escherichia coli
  MIC: > 128 µg/mL
Staphylococcus aureus [13]
  MIC: 16 µg/mL (≈ 24.2 µM)

## COc1cc(OCCCCN2CCCCC2)c(CC=C(C)C)c2c1C(=O)CC(c1ccc(OCCCCN3CCCCC3)cc1)O2 (configuration not stated)
Staphylococcus aureus [1]
  MIC: 16 µg/mL (≈ 25.3 µM)
Staphylococcus aureus [2]
  MIC: 16 µg/mL (≈ 25.3 µM)
Staphylococcus aureus [3]
  MIC: 32 µg/mL (≈ 50.6 µM)
[4]
  HC50 at 1 h: 199 µg/mL
Staphylococcus aureus [5]
  MIC: 16 µg/mL (≈ 25.3 µM)
Staphylococcus aureus [6]
  MIC: 32 µg/mL (≈ 50.6 µM)
Staphylococcus aureus [7]
  MIC: 32 µg/mL (≈ 50.6 µM)
Staphylococcus aureus [8]
  MIC: 32 µg/mL (≈ 50.6 µM)
Staphylococcus aureus [9]
  MIC: 16 µg/mL (≈ 25.3 µM)
Staphylococcus aureus [10]
  MIC: 16 µg/mL (≈ 25.3 µM)
[11]
  selectivity ratio: > 6.2
Staphylococcus aureus [12]
  MIC: 16 µg/mL (≈ 25.3 µM)
Escherichia coli
  MIC: > 128 µg/mL
Staphylococcus aureus [13]
  MIC: 16 µg/mL (≈ 25.3 µM)

## COc1cc(OCCCCCN2CCN(C)CC2)c(CC=C(C)C)c2c1C(=O)CC(c1ccc(OCCCCCN3CCN(C)CC3)cc1)O2 (configuration not stated)
Staphylococcus aureus [1]
  MIC: 16 µg/mL (≈ 23.2 µM)
Staphylococcus aureus [2]
  MIC: 16 µg/mL (≈ 23.2 µM)
Staphylococcus aureus [3]
  MIC: 16 µg/mL (≈ 23.2 µM)
[4]
  HC50 at 1 h: > 1280 µg/mL
Staphylococcus aureus [5]
  MIC: 16 µg/mL (≈ 23.2 µM)
Staphylococcus aureus [6]
  MIC: 16 µg/mL (≈ 23.2 µM)
Staphylococcus aureus [7]
  MIC: 16 µg/mL (≈ 23.2 µM)
Staphylococcus aureus [8]
  MIC: 16 µg/mL (≈ 23.2 µM)
Staphylococcus aureus [9]
  MIC: 16 µg/mL (≈ 23.2 µM)
Staphylococcus aureus [10]
  MIC: 16 µg/mL (≈ 23.2 µM)
[11]
  selectivity ratio: > 80
Staphylococcus aureus [12]
  MIC: 16 µg/mL (≈ 23.2 µM)
Escherichia coli
  MIC: > 128 µg/mL
Staphylococcus aureus [13]
  MIC: 8 µg/mL (≈ 11.6 µM)
